Reference: paper PMC5218480 (PLoS ONE, 2017)

Tested on: MV-4-11 cells
Test: Gene expression microarray analysis (Affymetrix PrimeView) and GSEA
Format: cell-based, human
Parameters: RFU PODN (11730768_x_at) / Fold change /veh PODN (11730768_x_at) / RFU LINC00158 (11744669_a_at) / Fold change /veh LINC00158 (11744669_a_at) / RFU DUSP10 (11751237_a_at) / Fold change /veh DUSP10 (11751237_a_at) / RFU ID3 (11757404_x_at) / Fold change /veh ID3 (11757404_x_at) / RFU PLEKHG5 (11737974_s_at) / Fold change /veh PLEKHG5 (11737974_s_at) / RFU LRRC4B (11730491_at) / Fold change /veh LRRC4B (11730491_at) / RFU GIMAP4 (11747438_a_at) / Fold change /veh GIMAP4 (11747438_a_at) / RFU KRT8 (11758183_x_at) / Fold change /veh KRT8 (11758183_x_at) / RFU CNN1 (11734310_a_at) / Fold change /veh CNN1 (11734310_a_at) / RFU VPS37D (11726825_at) / Fold change /veh VPS37D (11726825_at) / RFU C10orf10 (11716522_x_at) / Fold change /veh C10orf10 (11716522_x_at) / RFU KIR2DL2 /// KIR2DL4 /// KIR2DL5A /// KIR2DL5B /// KIR2DS1 /// KIR2DS2 /// KIR2DS3 /// KIR2DS4 /// KIR3DL3 /// KIR3DL3 /// KIR3DS1 (11738374_at) / Fold change /veh KIR2DL2 /// KIR2DL4 /// KIR2DL5A /// KIR2DL5B /// KIR2DS1 /// KIR2DS2 /// KIR2DS3 /// KIR2DS4 /// KIR3DL3 /// KIR3DL3 /// KIR3DS1 (11738374_at) / RFU C1QL1 (11718748_at) / Fold change /veh C1QL1 (11718748_at) / RFU TMPRSS4 (11747572_a_at) / Fold change /veh TMPRSS4 (11747572_a_at) / RFU HAMP (11756126_x_at) / Fold change /veh HAMP (11756126_x_at) / RFU RNFT2 (11725882_a_at) / Fold change /veh RNFT2 (11725882_a_at) / RFU NR4A2 (11747474_a_at) / Fold change /veh NR4A2 (11747474_a_at) / RFU ABCC12 (11746883_a_at) / Fold change /veh ABCC12 (11746883_a_at) / RFU TMEM136 (11760407_x_at) / Fold change /veh TMEM136 (11760407_x_at) / RFU CLDN22 /// WWC2 (11732394_at) / Fold change /veh CLDN22 /// WWC2 (11732394_at) / RFU HLA-DPB1 (11760878_x_at) / Fold change /veh HLA-DPB1 (11760878_x_at) / RFU SPINT1 (11716480_a_at) / Fold change /veh SPINT1 (11716480_a_at) / RFU GAP43 (11754022_s_at) / Fold change /veh GAP43 (11754022_s_at) / RFU A4GNT (11735810_at) / Fold change /veh A4GNT (11735810_at) / RFU PRB3 (11715151_x_at) / Fold change /veh PRB3 (11715151_x_at) / RFU TUBB4B (11761932_at) / Fold change /veh TUBB4B (11761932_at) / RFU CAPN14 (11732068_a_at) / Fold change /veh CAPN14 (11732068_a_at) / RFU TMCC2 (11721928_a_at) / Fold change /veh TMCC2 (11721928_a_at) / RFU IRGQ (11745062_a_at) / Fold change /veh IRGQ (11745062_a_at) / RFU FAM174B (11720279_a_at) / Fold change /veh FAM174B (11720279_a_at) / RFU TMPRSS4 (11748680_a_at) / Fold change /veh TMPRSS4 (11748680_a_at) / RFU FAM212B (11763350_a_at) / Fold change /veh FAM212B (11763350_a_at) / RFU PLEKHG5 (11743358_a_at) / Fold change /veh PLEKHG5 (11743358_a_at) / RFU ZSCAN30 (11745921_a_at) / Fold change /veh ZSCAN30 (11745921_a_at) / RFU CMKLR1 (11741424_a_at) / Fold change /veh CMKLR1 (11741424_a_at) / RFU LOC101060620 /// MAPK8IP1 (11723275_at) / Fold change /veh LOC101060620 /// MAPK8IP1 (11723275_at) / RFU SPTSSB (11747773_x_at) / Fold change /veh SPTSSB (11747773_x_at) / RFU PRSS12 (11739890_at) / Fold change /veh PRSS12 (11739890_at) / RFU BIN1 (11741810_x_at) / Fold change /veh BIN1 (11741810_x_at) / RFU WNT11 (11732464_a_at) / Fold change /veh WNT11 (11732464_a_at) / RFU C10orf10 (11716521_a_at) / Fold change /veh C10orf10 (11716521_a_at) / RFU C5orf56 (11738089_at) / Fold change /veh C5orf56 (11738089_at) / RFU CYB561 (11721691_x_at) / Fold change /veh CYB561 (11721691_x_at) / RFU ANKRD19P (11752326_a_at) / Fold change /veh ANKRD19P (11752326_a_at) / RFU OR2T12 /// OR2T33 /// OR2T8 (11738714_s_at) / Fold change /veh OR2T12 /// OR2T33 /// OR2T8 (11738714_s_at) / RFU VCAN (11748164_a_at) / Fold change /veh VCAN (11748164_a_at) / RFU JSRP1 (11732532_at) / Fold change /veh JSRP1 (11732532_at) / RFU KRTAP10-11 (11738290_x_at) / Fold change /veh KRTAP10-11 (11738290_x_at) / RFU MYO3A (11730013_a_at) / Fold change /veh MYO3A (11730013_a_at) / RFU EBF3 (11725865_a_at) / Fold change /veh EBF3 (11725865_a_at) / RFU CAMK2N1 (11719241_x_at) / Fold change /veh CAMK2N1 (11719241_x_at) / RFU C5orf56 (11738088_a_at) / Fold change /veh C5orf56 (11738088_a_at) / RFU OLFML3 (11715873_a_at) / Fold change /veh OLFML3 (11715873_a_at) / RFU LOC100653217 /// NTM (11731650_a_at) / Fold change /veh LOC100653217 /// NTM (11731650_a_at) / RFU MAPK11 (11762145_a_at) / Fold change /veh MAPK11 (11762145_a_at) / RFU FIZ1 (11724087_x_at) / Fold change /veh FIZ1 (11724087_x_at) / RFU OASL (11726364_x_at) / Fold change /veh OASL (11726364_x_at) / RFU SOX15 (11748057_x_at) / Fold change /veh SOX15 (11748057_x_at) / RFU CD79A (11719716_a_at) / Fold change /veh CD79A (11719716_a_at) / RFU HIST1H1D (11736915_at) / Fold change /veh HIST1H1D (11736915_at) / RFU CASKIN2 (11723855_a_at) / Fold change /veh CASKIN2 (11723855_a_at) / RFU LOC730098 (11760151_x_at) / Fold change /veh LOC730098 (11760151_x_at) / RFU OR4N2 (11742367_at) / Fold change /veh OR4N2 (11742367_at) / RFU PRRT2 (11749266_a_at) / Fold change /veh PRRT2 (11749266_a_at) / RFU SNX32 (11753110_a_at) / Fold change /veh SNX32 (11753110_a_at) / RFU CDHR5 (11726645_a_at) / Fold change /veh CDHR5 (11726645_a_at) / RFU RCAN1 (11760418_a_at) / Fold change /veh RCAN1 (11760418_a_at) / RFU FAM167A (11723789_a_at) / Fold change /veh FAM167A (11723789_a_at) / RFU FAM26E (11764081_at) / Fold change /veh FAM26E (11764081_at) / RFU ISYNA1 (11749810_s_at) / Fold change /veh ISYNA1 (11749810_s_at) / RFU ACY1 (11761880_at) / Fold change /veh ACY1 (11761880_at) / RFU 11764098_at / Fold change /veh 11764098_at / RFU SAMD14 (11745864_x_at) / Fold change /veh SAMD14 (11745864_x_at) / RFU NPB (11741838_a_at) / Fold change /veh NPB (11741838_a_at) / RFU TMPRSS6 (11731388_a_at) / Fold change /veh TMPRSS6 (11731388_a_at) / RFU KRTAP10-2 (11738614_at) / Fold change /veh KRTAP10-2 (11738614_at) / RFU ARHGAP8 /// PRR5-ARHGAP8 (11727945_x_at) / Fold change /veh ARHGAP8 /// PRR5-ARHGAP8 (11727945_x_at) / RFU KRTAP5-7 /// NADSYN1 (11734609_at) / Fold change /veh KRTAP5-7 /// NADSYN1 (11734609_at) / RFU RASL12 (11751679_a_at) / Fold change /veh RASL12 (11751679_a_at) / RFU CDKN2B (11736163_a_at) / Fold change /veh CDKN2B (11736163_a_at) / RFU PRF1 (11729649_at) / Fold change /veh PRF1 (11729649_at) / RFU, ZNF638 /// ZNF638-IT1 / Fold change vs veh, ZNF638 /// ZNF638-IT1 / RFU, PANK3 / Fold change vs veh, PANK3 / RFU, SH3YL1 / Fold change vs veh, SH3YL1 / RFU, ZEB2 / Fold change vs veh, ZEB2 / RFU, NRIP1 / Fold change vs veh, NRIP1 / RFU, PTTG1IP / Fold change vs veh, PTTG1IP / RFU, CAPN2 / Fold change vs veh, CAPN2 / RFU, MED14 / Fold change vs veh, MED14 / RFU, SNORA58 / Fold change vs veh, SNORA58 / RFU, C1orf63 / Fold change vs veh, C1orf63 / RFU, LRRFIP1 / Fold change vs veh, LRRFIP1 / RFU, NDUFAF7 / Fold change vs veh, NDUFAF7 / RFU, SLC12A2 / Fold change vs veh, SLC12A2 / RFU, IBTK / Fold change vs veh, IBTK / RFU, ESF1 / Fold change vs veh, ESF1 / Fold change vs veh, TMEM50B / RFU, TAOK1 / Fold change vs veh, TAOK1 / RFU, ACBD3 / Fold change vs veh, ACBD3 / RFU, TMA16 / Fold change vs veh, TMA16 / RFU, RWDD3 / Fold change vs veh, RWDD3 / RFU, BCAT1 / Fold change vs veh, BCAT1 / RFU, EDEM3 / Fold change vs veh, EDEM3 / RFU, TMEM33 / Fold change vs veh, TMEM33 / RFU, WDR75 / Fold change vs veh, WDR75 / RFU, AHCTF1 / Fold change vs veh, AHCTF1 / RFU, TFRC / Fold change vs veh, TFRC / RFU, ZDHHC17 / Fold change vs veh, ZDHHC17 / RFU, NOM1 / Fold change vs veh, NOM1 / RFU, ARL8B / Fold change vs veh, ARL8B / RFU, ZBTB11 / Fold change vs veh, ZBTB11 / RFU, TAMM41 / Fold change vs veh, TAMM41 / RFU, KIAA1704 /// LOC100996395 / Fold change vs veh, KIAA1704 /// LOC100996395 / RFU, ING1 / Fold change vs veh, ING1 / RFU, TRMT61B / Fold change vs veh, TRMT61B / RFU, FUBP3 / Fold change vs veh, FUBP3 / RFU, TP53 / Fold change vs veh, TP53 / RFU, TNKS2 / Fold change vs veh, TNKS2 / RFU, ZFP14 / Fold change vs veh, ZFP14 / RFU, ACTR2 / Fold change vs veh, ACTR2 / RFU, PPP3R1 / Fold change vs veh, PPP3R1 / RFU, PIK3R1 / Fold change vs veh, PIK3R1 / RFU, HNRNPA1 / Fold change vs veh, HNRNPA1 / RFU, RNF170 / Fold change vs veh, RNF170 / RFU, ZNF28 / Fold change vs veh, ZNF28 / RFU, RNGTT / Fold change vs veh, RNGTT / RFU, OGT / Fold change vs veh, OGT / RFU, BRD1 / Fold change vs veh, BRD1 / RFU, MARS / Fold change vs veh, MARS / RFU, ZNF655 / Fold change vs veh, ZNF655 / RFU, FAHD1 / Fold change vs veh, FAHD1 / RFU, BDP1 / Fold change vs veh, BDP1 / RFU, LRRCC1 / Fold change vs veh, LRRCC1 / RFU, ARID1A / Fold change vs veh, ARID1A / RFU, ZNF146 / Fold change vs veh, ZNF146 / RFU, ZNF330 / Fold change vs veh, ZNF330 / RFU, GPN3 / Fold change vs veh, GPN3 / RFU, C9orf123 / Fold change vs veh, C9orf123 / RFU, N4BP2L2 / Fold change vs veh, N4BP2L2 / RFU, ARFIP1 / Fold change vs veh, ARFIP1 / RFU, FAM179B / Fold change vs veh, FAM179B / RFU, BCL10 / Fold change vs veh, BCL10 / RFU, UHRF1BP1L / Fold change vs veh, UHRF1BP1L / RFU, BET1 / Fold change vs veh, BET1 / RFU, CNOT2 / Fold change vs veh, CNOT2 / RFU, ZNF268 / Fold change vs veh, ZNF268 / Fold change vs veh, ZNF507 / RFU, DGCR2 / Fold change vs veh, DGCR2 / RFU, WDSUB1 / Fold change vs veh, WDSUB1 / Fold change vs veh, HSP90B1 /// MIR3652 / RFU, ADSS / Fold change vs veh, ADSS / RFU, GK / Fold change vs veh, GK / RFU, ZNF148 / Fold change vs veh, ZNF148 / RFU, TAF9 / Fold change vs veh, TAF9 / RFU, SLC1A5 / Fold change vs veh, SLC1A5 / RFU, SLMO2 / Fold change vs veh, SLMO2 / RFU, ABCC4 / Fold change vs veh, ABCC4 / RFU, LOC101060439 /// RAP1B / Fold change vs veh, LOC101060439 /// RAP1B / RFU, RFX7 / Fold change vs veh, RFX7 / RFU, GTPBP10 / Fold change vs veh, GTPBP10 / RFU, CNEP1R1 / Fold change vs veh, CNEP1R1 / RFU, BIVM-ERCC5 /// ERCC5 / Fold change vs veh, BIVM-ERCC5 /// ERCC5 / RFU, ILF3 / Fold change vs veh, ILF3 / RFU 11762660_at / Fold change /veh 11762660_at / RFU VCAN (11757783_s_at) / Fold change /veh VCAN (11757783_s_at) / RFU DDX43 (11728927_at) / Fold change /veh DDX43 (11728927_at) / RFU KRT8 (11758188_x_at) / Fold change /veh KRT8 (11758188_x_at) / RFU NKD1 (11759106_at) / Fold change /veh NKD1 (11759106_at) / RFU SRD5A1 (11742802_a_at) / Fold change /veh SRD5A1 (11742802_a_at) / RFU TPSAB1 /// TPSB2 (11721975_s_at) / Fold change /veh TPSAB1 /// TPSB2 (11721975_s_at) / RFU GSTM3 (11746129_a_at) / Fold change /veh GSTM3 (11746129_a_at) / RFU IL23R (11737362_x_at) / Fold change /veh IL23R (11737362_x_at) / RFU TMEM51 (11727254_a_at) / Fold change /veh TMEM51 (11727254_a_at) / RFU PIWIL2 (11732686_x_at) / Fold change /veh PIWIL2 (11732686_x_at) / RFU ORM1 (11744905_x_at) / Fold change /veh ORM1 (11744905_x_at) / RFU CCDC152 (11743942_at) / Fold change /veh CCDC152 (11743942_at) / RFU ECM1 (11717891_a_at) / Fold change /veh ECM1 (11717891_a_at) / RFU IL23R (11748794_a_at) / Fold change /veh IL23R (11748794_a_at) / RFU TNFAIP8L3 (11732012_x_at) / Fold change /veh TNFAIP8L3 (11732012_x_at) / RFU MBOAT4 (11741988_at) / Fold change /veh MBOAT4 (11741988_at) / RFU 11764193_at / Fold change /veh 11764193_at / RFU TMEM53 (11763286_at) / Fold change /veh TMEM53 (11763286_at) / RFU MAGEB2 (11727129_at) / Fold change /veh MAGEB2 (11727129_at) / RFU TMEM200A (11744735_a_at) / Fold change /veh TMEM200A (11744735_a_at) / RFU CCDC152 (11751479_a_at) / Fold change /veh CCDC152 (11751479_a_at) / RFU FAM211A (11726209_a_at) / Fold change /veh FAM211A (11726209_a_at) / RFU RGS16 (11746705_a_at) / Fold change /veh RGS16 (11746705_a_at) / RFU VCAN (11755009_s_at) / Fold change /veh VCAN (11755009_s_at) / RFU RHOB (11743442_s_at) / Fold change /veh RHOB (11743442_s_at) / RFU RGS16 (11720943_a_at) / Fold change /veh RGS16 (11720943_a_at) / RFU RGS16 (11720944_at) / Fold change /veh RGS16 (11720944_at) / RFU, VPS4B / Fold change vs veh, VPS4B / RFU, CREB1 / Fold change vs veh, CREB1 / RFU, DNAJC13 / Fold change vs veh, DNAJC13 / RFU, GNAQ / Fold change vs veh, GNAQ / RFU, CDK5R1 / Fold change vs veh, CDK5R1 / RFU, ZRANB3 / Fold change vs veh, ZRANB3 / RFU, CUL4A / Fold change vs veh, CUL4A / RFU, CCNY / Fold change vs veh, CCNY / RFU, UFL1 / Fold change vs veh, UFL1 / RFU, COG3 / Fold change vs veh, COG3 / RFU, DIAPH2 / Fold change vs veh, DIAPH2 / RFU, SKA2 / Fold change vs veh, SKA2 / RFU, AFF3 / Fold change vs veh, AFF3 / RFU, LMF1 / Fold change vs veh, LMF1 / RFU, IPO11 / Fold change vs veh, IPO11 / RFU, DFFB / Fold change vs veh, DFFB / RFU, FOXP1 / Fold change vs veh, FOXP1 / RFU, CARD8 / Fold change vs veh, CARD8 / RFU, STRN3 / Fold change vs veh, STRN3 / RFU, ADK / Fold change vs veh, ADK / RFU, RASSF2 / Fold change vs veh, RASSF2 / RFU, WIPF1 / Fold change vs veh, WIPF1 / RFU, LARP1B / Fold change vs veh, LARP1B / RFU, RASA1 / Fold change vs veh, RASA1 / RFU, RB1 / Fold change vs veh, RB1 / RFU, PPFIA1 / Fold change vs veh, PPFIA1 / RFU, MAT2A / Fold change vs veh, MAT2A / RFU, CCT5 / Fold change vs veh, CCT5 / RFU, WDR92 / Fold change vs veh, WDR92 / RFU, CUX1 / Fold change vs veh, CUX1 / RFU, TTC7A / Fold change vs veh, TTC7A / RFU, TMEM135 / Fold change vs veh, TMEM135 / RFU, DEPTOR / Fold change vs veh, DEPTOR / RFU, CPM / Fold change vs veh, CPM / RFU, DNAJB6 / Fold change vs veh, DNAJB6 / RFU, CACNA2D3 / Fold change vs veh, CACNA2D3 / RFU, DTX4 / Fold change vs veh, DTX4 / RFU, TFCP2 / Fold change vs veh, TFCP2 / RFU, GMCL1 /// GMCL1P1 / Fold change vs veh, GMCL1 /// GMCL1P1 / RFU, AEBP2 / Fold change vs veh, AEBP2 / RFU, SNHG1 /// SNORD22 /// SNORD25 /// SNORD26 /// SNORD27 /// SNORD28 /// SNORD29 /// SNORD31 / Fold change vs veh, SNHG1 /// SNORD22 /// SNORD25 /// SNORD26 /// SNORD27 /// SNORD28 /// SNORD29 /// SNORD31 / Fold change (Aza/veh), C12orf56 (ProbeSet 11735607_a_at) / Fold change (ACY-1035/veh), C12orf56 (ProbeSet 11735607_a_at) / Fold change (Aza/veh), FGFR1OP (ProbeSet 11751329_s_at) / Fold change (ACY-1035/veh), FGFR1OP (ProbeSet 11751329_s_at) / Fold change (Aza/veh), VPS36 (ProbeSet 11739960_a_at) / Fold change (ACY-1035/veh), VPS36 (ProbeSet 11739960_a_at) / RFU SYPL1 (11715823_x_at) / Fold change /veh SYPL1 (11715823_x_at) / RFU IGFBP7 (11715501_s_at) / Fold change /veh IGFBP7 (11715501_s_at) / RFU REEP3 (11722064_at) / Fold change /veh REEP3 (11722064_at) / RFU IGLL1 (11728026_x_at) / Fold change /veh IGLL1 (11728026_x_at): dose or concentration left out as unconfirmed
Conditions: ProbeSet 11717914_a_at; LIST B

Nc1ncn([C@@H]2O[C@H](CO)[C@@H](O)[C@H]2O)c(=O)n1 [azacitidine]
Fold change vs veh, BIVM-ERCC5 /// ERCC5: 0.92
